Tested on: Human primary T cells
Assay: IL-2 ELISA, human primary T cell, anti-CD3+CD28+ (whole cell assay)
Format: cell-based
Settings: Homo sapiens, T-cell, 24 h, human primary T cells stimulated with anti-CD3 + anti-CD28, 24 hours
How it was run: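 PBMC-derived T cells, pre-expanded on αCD3/αCD28 with IL-2 and then washed free of IL-2, were preincubated with compound for 1 hr at 37° C (100,000 cells/well). They were then stimulated on 1 μg/ml αCD3 plus 5 μg/ml αCD28 for 24 h, and supernatant IL-2 was measured by ELISA. The counter-assay used 0.5 ng/ml PMA plus 0.1 μM ionomycin instead.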

IC50, < 250 nM:
CC(C)N1CC[C@H](Oc2ccc(Nc3ncc(F)c(NC4CC(C)(C)N(C)C(C)(C)C4)n3)cc2OC(F)F)C1 [Compound I-149, N2-(4-((S)-1-isopropylpyrrolidin-3-yloxy)-3-(difluoromethoxy)phenyl)-5-fluoro-N4-(1,2,2,6,6-pentamethylpiperidin-4-yl)pyrimidine-2,4-diamine]
CC(C)N1CCC(Oc2ccc(Nc3ncc(F)c(NC4CC(C)(C)NC(C)(C)C4)n3)cc2C#N)CC1 [Compound I-150, 2-(1-isopropylpiperidin-4-yloxy)-5-(4-(2,2,6,6-tetramethylpiperidin-4-ylamino)-5-fluoropyrimidin-2-ylamino)benzonitrile]
CC1(C)CC(Nc2nc(Nc3ccc4c(c3)OC(C)(C)C(=O)N4CCF)ncc2F)CC(C)(C)N1 [II-9, N2-[2,2-Dimethyl-4-(2-fluoroethyl)-1,4-benzoxazin-3-one-7-yl]-5-fluoro-N4-(2,2,6,6-tetramethylpiperidin-4-yl)-2,4-pyrimidinediamine]
COc1cc(Nc2ncc(F)c(NC3CC(C)N(C4CC4)C(C)C3)n2)cc(-n2cnnn2)c1 (centres unmarked) [III-7, N^4-(1-cyclopropyl-2,6-dimethylpiperidin-4-yl)-5-fluoro-N2-(3-methoxy-5-(1H-tetrazol-1-yl)phenyl)pyrimidine-2,4-diamine]
Cc1nnnn1-c1cccc(Nc2ncc(F)c(NC3CC(C)N(C4CC4)C(C)C3)n2)c1 (centres unmarked) [III-8, N^4-(1-cyclopropyl-2,6-dimethylpiperidin-4-yl)-5-fluoro-N2-(3-(5-methyl-1H-tetrazol-1-yl)phenyl)pyrimidine-2,4-diamine]

IC50, 250 to 500 nM:
CC(C)N1CC[C@H](Oc2ccc(Nc3ncc(F)c(NC4CC(C)(C)NC(C)(C)C4)n3)cc2OC(F)F)C1 [Compound I-148, N2-(4-((S)-1-isopropylpyrrolidin-3-yloxy)-3-(difluoromethoxy)phenyl)-5-fluoro-N4-(2,2,6,6-tetramethylpiperidin-4-yl)pyrimidine-2,4-diamine]
Cc1nnnn1-c1cc(Nc2ncc(F)c(NC3CC(C)(C)N(C)C(C)(C)C3)n2)ccc1OC1CCN(C(C)C)CC1 [III-1, 5-fluoro-N2-(4-(1-isopropylpiperidin-4-yloxy)-3-(5-methyl-1H-tetrazol-1-yl)phenyl)-N4-(1,2,2,6,6-pentamethylpiperidin-4-yl)pyrimidine-2,4-diamine]
CC1CC(Nc2nc(Nc3cccc(-n4cnnn4)c3)ncc2F)CC(C)N1C1CC1 (centres unmarked) [III-5, N^2-(3-(1H-tetrazol-1-yl)phenyl)-N4-(1-cyclopropyl-2,6-dimethylpiperidin-4-yl)-5-fluoropyrimidine-2,4-diamine]
Cc1ccc(Nc2ncc(F)c(NC3CC(C)N(C4CC4)C(C)C3)n2)cc1-n1cnnn1 (centres unmarked) [III-6, N^4-(1-cyclopropyl-2,6-dimethylpiperidin-4-yl)-5-fluoro-N2-(4-methyl-3-(1H-tetrazol-1-yl)phenyl)pyrimidine-2,4-diamine]
CC1CC(Nc2nc(Nc3cccc(-n4nnnc4SCC(F)(F)F)c3)ncc2F)CC(C)N1C1CC1 (centres unmarked) [III-9, N^4-(1-cyclopropyl-2,6-dimethylpiperidin-4-yl)-5-fluoro-N2-(3-(5-(2,2,2-trifluoroethylthio)-1H-tetrazol-1-yl)phenyl)pyrimidine-2,4-diamine]
CSc1nnnn1-c1cccc(Nc2ncc(F)c(NC3CC(C)N(C4CC4)C(C)C3)n2)c1 (centres unmarked) [III-10, N^4-(1-cyclopropyl-2,6-dimethylpiperidin-4-yl)-5-fluoro-N2-(3-(5-(methylthio)-1H-tetrazol-1-yl)phenyl)pyrimidine-2,4-diamine]
CC1CC(Nc2nc(Nc3ccc(F)c(-n4cnnn4)c3)ncc2F)CC(C)N1C1CC1 (centres unmarked) [III-11, N^4-(1-cyclopropyl-2,6-dimethylpiperidin-4-yl)-5-fluoro-N^2-(4-fluoro-3-(1H-tetrazol-1-yl)phenyl)pyrimidine-2,4-diamine]

IC50, 500 to 1000 nM:
CC(C)N1CCC(Oc2ccc(Nc3ncc(F)c(NC4CC(C)(C)N(C)C(C)(C)C4)n3)cc2C#N)CC1 [Compound I-151, 2-(1-isopropylpiperidin-4-yloxy)-5-(4-(1,2,2,6,6-pentamethylpiperidin-4-ylamino)-5-fluoropyrimidin-2-ylamino)benzonitrile]

IC50, > 1000 nM:
CN1C(C)(C)CC(Nc2nc(Nc3ccc4c(c3)OCC(C(=O)N3CCCCC3)O4)ncc2F)CC1(C)C (centres unmarked) [II-1, (6-(4-(1,2,2,6,6-pentamethylpiperidin-4-ylamino)-5-fluoropyrimidin-2-ylamino)-2,3-dihydrobenzo[b][1,4]dioxin-2-yl)(piperidin-1-yl)methanone]
CN1C(C)(C)CC(Nc2nc(Nc3ccc4c(c3)OCC(C(=O)N3CCOCC3)O4)ncc2F)CC1(C)C (centres unmarked) [II-2, (6-(4-(1,2,2,6,6-pentamethylpiperidin-4-ylamino)-5-fluoropyrimidin-2-ylamino)-2,3-dihydrobenzo[b][1,4]dioxin-2-yl)(morpholino)methanone]
CC1(C)CC(Nc2nc(Nc3ccc4c(c3)OCC(C(=O)N3CCCCC3)O4)ncc2F)CC(C)(C)N1 (centres unmarked) [II-3, (6-(4-(2,2,6,6-tetramethylpiperidin-4-ylamino)-5-fluoropyrimidin-2-ylamino)-2,3-dihydrobenzo[b][1,4]dioxin-2-yl)(piperidin-1-yl)methanone]
CC1(C)CC(Nc2nc(Nc3ccc4c(c3)OCC(C(=O)N3CCOCC3)O4)ncc2F)CC(C)(C)N1 (centres unmarked) [II-4, (6-(4-(2,2,6,6-tetramethylpiperidin-4-ylamino)-5-fluoropyrimidin-2-ylamino)-2,3-dihydrobenzo[b][1,4]dioxin-2-yl)(morpholino)methanone]
CN1C(C)(C)CC(Nc2nc(Nc3ccc4c(c3)OCC(CN3CCCCC3)O4)ncc2F)CC1(C)C (centres unmarked) [II-5, 5-fluoro-N2-(2,3-dihydro-2-((piperidin-1-yl)methyl)benzo[b][1,4]dioxin-6-yl)-N4-(1,2,2,6,6-pentamethylpiperidin-4-yl)pyrimidine-2,4-diamine]
CN1C(C)(C)CC(Nc2nc(Nc3ccc4c(c3)OCC(CN3CCOCC3)O4)ncc2F)CC1(C)C (centres unmarked) [II-6, 5-fluoro-N2-(2,3-dihydro-2-(morpholinomethyl)benzo[b][1,4]dioxin-6-yl)-N4-(1,2,2,6,6-pentamethylpiperidin-4-yl)pyrimidine-2,4-diamine]
CC1(C)CC(Nc2nc(Nc3ccc4c(c3)OCC(CN3CCCCC3)O4)ncc2F)CC(C)(C)N1 (centres unmarked) [II-7, 5-fluoro-N2-(2,3-dihydro-2-((piperidin-1-yl)methyl)benzo[b][1,4]dioxin-6-yl)-N4-(2,2,6,6-tetramethylpiperidin-4-yl)pyrimidine-2,4-diamine]
CC1(C)CC(Nc2nc(Nc3ccc4c(c3)OCC(CN3CCOCC3)O4)ncc2F)CC(C)(C)N1 (centres unmarked) [II-8, 5-fluoro-N2-(2,3-dihydro-2-(morpholinomethyl)benzo[b][1,4]dioxin-6-yl)-N4-(2,2,6,6-tetramethylpiperidin-4-yl)pyrimidine-2,4-diamine]
Cc1nnnn1-c1cc(Nc2ncc(F)c(NC3CC(C)(C)NC(C)(C)C3)n2)ccc1OC1CCN(C(C)C)CC1 [III-2, 5-fluoro-N2-(4-(1-isopropylpiperidin-4-yloxy)-3-(5-methyl-1H-tetrazol-1-yl)phenyl)-N4-(2,2,6,6-tetramethylpiperidin-4-yl)pyrimidine-2,4-diamine]
CC(C)N1CCC(Oc2ccc(Nc3ncc(F)c(NC4CC(C)(C)N(CC(F)(F)F)C(C)(C)C4)n3)cc2OC(F)F)CC1 [III-3, N2-(3-(Difluoromethoxy)-4-(1-isopropylpiperidin-4-yloxy)phenyl)-5-fluoro-N4-(2,2,6,6-tetramethyl-1-(2,2,2-trifluoroethyl)piperidin-4-yl)pyrimidine-2,4-diamine]
CC(=O)N1C(C)(C)CC(Nc2nc(Nc3ccc(OC4CCN(C(C)C)CC4)c(OC(F)F)c3)ncc2F)CC1(C)C [III-4, 1-(4-(2-(3-(Difluoromethoxy)-4-(1-isopropylpiperidin-4-yloxy)phenylamino)-5-fluoropyrimidin-4-ylamino)-2,2,6,6-tetramethylpiperidin-1-yl)ethanone]
CC(=O)N1CCC(Oc2ccc(Nc3ncc(F)c(NC4CC(C)(C)N(C)C(C)(C)C4)n3)cc2F)CC1 [III-12, 1-(4-(2-fluoro-4-(5-fluoro-4-(1,2,2,6,6-pentamethylpiperidin-4-ylamino)pyrimidin-2-ylamino)phenoxy)piperidin-1-yl)ethanone]
CC(=O)N1CCC(Oc2ccc(Nc3ncc(F)c(NC4CC(C)(C)NC(C)(C)C4)n3)cc2F)CC1 [III-13, 1-(4-(2-fluoro-4-(5-fluoro-4-(2,2,6,6-tetramethylpiperidin-4-ylamino)pyrimidin-2-ylamino)phenoxy)piperidin-1-yl)ethanone]
CN1C(C)(C)CC(Nc2nc(Nc3ccc(OC4CCN(S(C)(=O)=O)CC4)c(F)c3)ncc2F)CC1(C)C [III-14, 5-fluoro-N2-(3-fluoro-4-(1-(methylsulfonyl)piperidin-4-yloxy)phenyl)-N4-(1,2,2,6,6-pentamethylpiperidin-4-yl)pyrimidine-2,4-diamine]
CC1(C)CC(Nc2nc(Nc3ccc(OC4CCN(S(C)(=O)=O)CC4)c(F)c3)ncc2F)CC(C)(C)N1 [III-15, 5-fluoro-N2-(3-fluoro-4-(1-(methylsulfonyl)piperidin-4-yloxy)phenyl)-N4-(2,2,6,6-tetramethylpiperidin-4-yl)pyrimidine-2,4-diamine]

Same assay, conditions: human primary T cells stimulated with anti-CD3 + anti-CD28, 24 hours

IC50, > 1000 nM:
CC1(C)CC(Nc2nc(Nc3ccc4c(c3)OCCO4)ncc2F)CC(C)(C)N1 [II-10, N2-(3,4-Ethylenedioxy)phenyl-5-fluoro-N4-(2,2,6,6-tetramethylpiperidin-4-yl)-2,4-pyrimidinediamine]

— patent US9149475B2, “Protein kinase C inhibitors and uses thereof” (Rigel Pharmaceuticals, Inc., priority 2009, dated 2015)
